Patent US20250152574A1 (BIOGEN MA INC., priority 2022, published 2025)

Target: T1, EBP (Homo sapiens, UniProt Q15125)
T1 construct: HEK293T cells were utilized as the source of EBP enzyme; endogenous in cells; host or cells: HEK293T
Assay: EBP Functional Assay (EBP immunoaffinity LC-MS assay)
Assay type: biochemical
Details: HEK293T cells as source of EBP enzyme; substrate zymosterol-d5, 37° C. for 4 h; percent conversion to dehydrolathosterol-d5 by LC-APCI MRM MS
Protocol: The EBP immunoaffinity (IA) LC-MS assay measures the potency of small molecule inhibitors of EBP by quantifying their concentration-dependent changes in the enzyme's substrate and product using liquid chromatography atmospheric pressure chemical ionization multiple reaction monitoring mass spectrometry (LC-APCI MRM MS). HEK293T cells were utilized as the source of EBP enzyme. The enzyme was incubated with the small molecule inhibitors at variable concentrations for 30 min. Deuterated form of EBP substrate, zymosterol-d5 (Avanti Polar Lipids, Cat #700068P-1 mg), was then added and the plate was incubated at 37° C. for 4 h. Finally, the sterol isomers were extracted and injected to LC-APCI MRM MS. MRM transition used for the quantification for both zymosterol and […] (substrate and product of EBP enzymatic reaction, respectively) is 372.3-203.2, CE 30 and DP 80 in positive ion mode. Percent conversion of the zymosterol-d5 to dehydrolathosterol-d5 was used to derive IC50 curves. Tasin-1 (1′-[(4-Methoxyphenyl)sulfonyl]-4-methyl-1,4′-bipiperidine, CAS 792927-06-1) was used as the reference small molecule inhibitor.
Percent conversion versus the compound concentration data were fit to the following 4-parameter logistic model to generate IC50 curves: […]

T1 sequence (Q15125 whole entry): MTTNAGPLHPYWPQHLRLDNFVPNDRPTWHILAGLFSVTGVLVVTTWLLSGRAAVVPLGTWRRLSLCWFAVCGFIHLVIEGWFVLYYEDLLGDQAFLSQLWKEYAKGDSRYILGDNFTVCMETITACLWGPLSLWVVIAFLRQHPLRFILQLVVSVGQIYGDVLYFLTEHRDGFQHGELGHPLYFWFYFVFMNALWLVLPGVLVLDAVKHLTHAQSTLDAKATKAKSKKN

Row | SMILES | IC50
1 | N#Cc1ccc(F)c(S(=O)(=O)N2CCC3(CC2)CC(N2CC4(COC4)C2)CO3)c1 (stereo not drawn) [Example 46, 3-((3-(2-Oxa-6-azaspiro[3.3]heptan-6-yl)-1-oxa-8-azaspiro[4.5]decan-8-yl)sulfonyl)-4-fluorobenzonitrile] | 250 to 1500 nM
2 | Cn1nc(C2CC2)cc1S(=O)(=O)N1CCC2(CC1)C[C@@H](N1CC3(COC3)C1)CO2 (single isomer, unassigned) [Example 57a] | 250 to 1500 nM
3 | COCCN(C)C1CC2(CCN(S(=O)(=O)c3cc(C)nn3C)CC2)C1 [Example 91, 7-((1,3-dimethyl-1H-pyrazol-5-yl)sulfonyl)-N-(2-methoxyethyl)-N-methyl-7-azaspiro[3.5]nonan-2-amine] | 250 to 1500 nM
4 | Cc1cc(S(=O)(=O)N2CCC3(CC2)CC(N2CC4(COC4)C2)C3)n(C)n1 [Example 92, 6-(7-((1,3-dimethyl-1H-pyrazol-5-yl)sulfonyl)-7-azaspiro[3.5]nonan-2-yl)-2-oxa-6-azaspiro[3.3]heptane] | 100 to 250 nM
5 | Cc1cc(S(=O)(=O)N2CCC3(CCC(N4CCC(C)(O)CC4)C3)CC2)n(C)n1 (stereo not drawn) [Example 84, 1-(8-((1,3-dimethyl-1H-pyrazol-5-yl)sulfonyl)-8-azaspiro[4.5]decan-2-yl)-4-methylpiperidin-4-ol] | 100 to 250 nM
6 | Cc1occc1S(=O)(=O)N1CCC2(CCC(N3CC4(COC4)C3)C2)CC1 (stereo not drawn) [Example 105] | 250 to 1500 nM
7 | COc1ncc(C)cc1S(=O)(=O)N1CCC2(CC1)CC(N1CC3(COC3)C1)CO2 (stereo not drawn) [Example 117, 8-((2-methoxy-5-methylpyridin-3-yl)sulfonyl)-3-(2-oxa-6-azaspiro[3.3]heptan-6-yl)-1-oxa-8-azaspiro[4.5]decane] | 250 to 1500 nM
8 | COc1ncc(Cl)cc1S(=O)(=O)N1CCC2(CC1)CC(N1CC(OC)C1)CO2 (stereo not drawn) [Example 61, 8-((5-Chloro-2-methoxypyridin-3-yl)sulfonyl)-3-(3-methoxyazetidin-1-yl)-1-oxa-8-azaspiro[4.5]decane] | 250 to 1500 nM
9 | Cc1cc(S(=O)(=O)N2CCC3(CC[C@H](N4CCOCC4)C3)CC2)n(C)n1 (single isomer, unassigned) [Example 22b] | 100 to 250 nM
10 | CC(C)Oc1ccc(S(=O)(=O)N2CCC3(CCC(N4CC5(COC5)C4)C3)CC2)cn1 (stereo not drawn) [Example 130, 6-(8-((6-isopropoxypyridin-3-yl)sulfonyl)-8-azaspiro[4.5]decan-2-yl)-2-oxa-6-azaspiro[3.3]heptane] | 100 to 250 nM
11 | O=S(=O)(c1ccc(F)cc1)N1CCC2(CC1)CC(N1CC3(COC3)C1)CO2 (stereo not drawn) [Example 8] | 250 to 1500 nM
12 | N#Cc1ccc(F)c(S(=O)(=O)N2CCC3(CC2)CC(NC2CCC(F)(F)CC2)CO3)c1 (stereo not drawn) [Example 48, 3-((3-((4,4-Difluorocyclohexyl)amino)-1-oxa-8-azaspiro[4.5]decan-8-yl)sulfonyl)-4-fluorobenzonitrile] | 100 to 250 nM
13 | Cc1cc(S(=O)(=O)N2CCC3(CCC(N4C[C@@H]5C[C@H]4CO5)C3)CC2)n(C)n1 (stereo partly drawn) [Example 87, (1S,4S)-5-(8-((1,3-dimethyl-1H-pyrazol-5-yl)sulfonyl)-8-azaspiro[4.5]decan-2-yl)-2-oxa-5-azabicyclo[2.2.1]heptane] | 250 to 1500 nM
14 | Cc1nc(C(F)(F)F)ncc1S(=O)(=O)N1CCC2(CC1)CC(N(C)C1CC3(COC3)C1)CO2 (stereo not drawn) [Example 140, N-methyl-8-((4-methyl-2-(trifluoromethyl)pyrimidin-5-yl)sulfonyl)-N-(2-oxaspiro[3.3]heptan-6-yl)-1-oxa-8-azaspiro[4.5]decan-3-amine] | < 100 nM
15 | O=S(=O)(c1cnc2cccc(F)c2c1)N1CCC2(CCC(N3CC4(COC4)C3)C2)CC1 (stereo not drawn) [Example 132, 6-(8-((5-fluoroquinolin-3-yl)sulfonyl)-8-azaspiro[4.5]decan-2-yl)-2-oxa-6-azaspiro[3.3]heptane] | < 100 nM
16 | O=S(=O)(c1coc(C(F)(F)F)c1)N1CCC2(CCC(N3CC4(COC4)C3)C2)CC1 (stereo not drawn) [Example 101, 6-(8-((5-(trifluoromethyl)furan-3-yl)sulfonyl)-8-azaspiro[4.5]decan-2-yl)-2-oxa-6-azaspiro[3.3]heptane] | < 100 nM
17 | Cc1ccc(S(=O)(=O)N2CCC3(CC2)CC(NC2CCOCC2)CO3)c(Cl)c1 (stereo not drawn) [Example 51, 8-((2-Chloro-4-methylphenyl)sulfonyl)-N-(tetrahydro-2H-pyran-4-yl)-1-oxa-8-azaspiro[4.5]decan-3-amine] | < 100 nM
18 | O=S(=O)(c1cccc2ccnn12)N1CCC2(CCC(N3CC4(COC4)C3)C2)CC1 (stereo not drawn) [Example 131, 6-(8-(pyrazolo[1,5-a]pyridin-7-ylsulfonyl)-8-azaspiro[4.5]decan-2-yl)-2-oxa-6-azaspiro[3.3]heptane] | 100 to 250 nM
19 | COc1ncc(C)cc1S(=O)(=O)N1CCC2(CCC(NC3(C)COC3)C2)CC1 (stereo not drawn) [Example 41] | 100 to 250 nM
20 | O=S(=O)(c1ccc(OC(F)F)cc1)N1CCC2(CC1)CC(N1CC3(CCCOC3)C1)CO2 (stereo not drawn) [Example 143, 8-((4-(difluoromethoxy)phenyl)sulfonyl)-3-(6-oxa-2-azaspiro[3.5]nonan-2-yl)-1-oxa-8-azaspiro[4.5]decane] | 100 to 250 nM

Row | SMILES | IC50
21 | Cc1cc(S(=O)(=O)N2CCC3(CCC(N4CC5(COC5)C4)C3)CC2)cnc1C (stereo not drawn) [Example 109] | 100 to 250 nM
22 | COc1ccc(S(=O)(=O)N2CCC3(CCC(N4CC5(COC5)C4)C3)CC2)cc1F (stereo not drawn) [Example 10] | 100 to 250 nM
23 | Cc1cc(F)c(S(=O)(=O)N2CCC3(CC2)CC(N2CCOCC2)CO3)c(F)c1 (stereo not drawn) [Example 16] | 250 to 1500 nM
24 | COCCNC1COC2(CCN(S(=O)(=O)c3cc(C4CC4)nn3C)CC2)C1 (stereo not drawn) [Example 59, 8-((3-Cyclopropyl-1-methyl-1H-pyrazol-5-yl)sulfonyl)-N-(2-methoxyethyl)-1-oxa-8-azaspiro[4.5]decan-3-amine] | 250 to 1500 nM
25 | Cc1ccc(S(=O)(=O)N2CCC3(CC2)C[C@H](N2CC(O)C2)CO3)c(Cl)c1 (single isomer, unassigned) [Example 53b] | 100 to 250 nM
26 | Cc1cc(S(=O)(=O)N2CCC3(CC[C@H](N4CC5(COC5)C4)C3)CC2)n(C)n1 (single isomer, unassigned) [Example 68b] | 100 to 250 nM
27 | CC1(O)CCN([C@@H]2COC3(CCN(S(=O)(=O)c4cc(C#N)ccc4F)CC3)C2)CC1 (single isomer, unassigned) [Example 141] | 250 to 1500 nM
28 | Cn1nc(C(F)F)cc1S(=O)(=O)N1CCC2(CCC(N3CC4(COC4)C3)C2)CC1 (stereo not drawn) [Example 125, 6-(8-((3-(difluoromethyl)-1-methyl-1H-pyrazol-5-yl)sulfonyl)-8-azaspiro[4.5]decan-2-yl)-2-oxa-6-azaspiro[3.3]heptane] | < 100 nM
29 | Cc1nc(OC(F)F)ccc1S(=O)(=O)N1CCC2(CC1)CC(N1CC3(COC3)C1)C2 [Example 121, 6-(7-((6-(difluoromethoxy)-2-methylpyridin-3-yl)sulfonyl)-7-azaspiro[3.5]nonan-2-yl)-2-oxa-6-azaspiro[3.3]heptane] | < 100 nM
30 | N#Cc1cc(F)cc(S(=O)(=O)N2CCC3(CCC(N4CC5(COC5)C4)C3)CC2)c1 (stereo not drawn) [Example 13] | 100 to 250 nM
31 | O=S(=O)(c1ccc2ncc(F)cc2c1)N1CCC2(CCC(N3CC4(COC4)C3)C2)CC1 (stereo not drawn) [Example 133, 6-(8-((3-fluoroquinolin-6-yl)sulfonyl)-8-azaspiro[4.5]decan-2-yl)-2-oxa-6-azaspiro[3.3]heptane] | 100 to 250 nM
32 | Cc1nc(C(F)(F)F)ccc1S(=O)(=O)N1CCC2(CC1)CC(NC1CCOCC1)CO2 (stereo not drawn) [Example 138, 8-((2-methyl-6-(trifluoromethyl)pyridin-3-yl)sulfonyl)-N-(tetrahydro-2H-pyran-4-yl)-1-oxa-8-azaspiro[4.5]decan-3-amine] | 250 to 1500 nM
33 | Cn1nc(C2CC2)cc1S(=O)(=O)N1CCC2(CC1)CC(N1CC3(COC3)C1)CO2 (stereo not drawn) [Example 56, 8-((3-Cyclopropyl-1-methyl-1H-pyrazol-5-yl)sulfonyl)-3-(2-oxa-6-azaspiro[3.3]heptan-6-yl)-1-oxa-8-azaspiro[4.5]decane] | 100 to 250 nM
34 | N#Cc1cc(F)cc(S(=O)(=O)N2CCC3(CC[C@H](N4CC5(COC5)C4)C3)CC2)c1 (single isomer, unassigned) [Example 85b] | < 100 nM
35 | COC1CN(C2COC3(CCN(S(=O)(=O)c4cnc(C5CC5)s4)CC3)C2)C1 (stereo not drawn) [Example 55, 8-((2-Cyclopropylthiazol-5-yl)sulfonyl)-3-(3-methoxyazetidin-1-yl)-1-oxa-8-azaspiro[4.5]decane] | 250 to 1500 nM
36 | Cc1ccc(F)c(S(=O)(=O)N2CCC3(CC2)CC(N2CCOCC2)CO3)c1 (stereo not drawn) [Example 18, 8-((2-Fluoro-5-methylphenyl)sulfonyl)-3-morpholino-1-oxa-8-azaspiro[4.5]decane] | 100 to 250 nM
37 | COC1CN(C2COC3(CCN(S(=O)(=O)c4cc(C5CC5)nn4C)CC3)C2)C1 (stereo not drawn) [Example 58, 8-((3-Cyclopropyl-1-methyl-1H-pyrazol-5-yl)sulfonyl)-3-(3-methoxyazetidin-1-yl)-1-oxa-8-azaspiro[4.5]decane] | 250 to 1500 nM
38 | Cc1nc(C(F)(F)F)ccc1S(=O)(=O)N1CCC2(CC1)CC(N1CC(O)C1)C2 [Example 95, 1-(7-((2-methyl-6-(trifluoromethyl)pyridin-3-yl)sulfonyl)-7-azaspiro[3.5]nonan-2-yl)azetidin-3-ol] | < 100 nM
39 | O=S(=O)(c1ccc(F)cc1)N1CCC2(CCC(N3CC4(COC4)C3)C2)CC1 (stereo not drawn) [Example 12] | < 100 nM
